Experimental data as given in PMC6950821, “Bioactivity Evaluation of a Novel Formulated Curcumin” (Nutrients, 2019).
Read-outs that look alike come from different tables or passages of the source. Each block holds one compound with its values, some of them ahead of it.

How the values were obtained:
ERK = experiment: Western blot of ERK phosphorylation, Huh7; type: cell-based, human; settings: Huh7, 10–60 μM, 48 h
Method: (§1) The cells were incubated with various treatment (conventional and formulated curcumin or combination of sorafenib and conventional and formulated curcumin), and then collected for western blot. Aliquots of cell lysates containing 20–50 μg of protein were separated by SDS-polyacrylamide gel electrophoresis (SDS-PAGE), transferred onto a polyvinylidene difluoride (PVDF) membrane and detected using specific primary and secondary antibodies. The protein bands were visualized by an enhanced chemiluminescence (ECL) detection kit (Immobilon^TM western, Millipore). The membranes were reprobed for β-actin as a loading control. All western blots were carried out at least three times for each experiment. The data were normalized to β-actin. The following primary antibodies were used: anti-extracellular regulated protein kinases (ERK), anti-caspase-3, anti-poly (ADP-ribose) polymerase (PARP) (all from Cell Signaling Technology) and anti-aurora kinase A (AURKA) (BD Biosciences). All antibodies were used at a 1:1000 dilution.

Huh7 cells [1] = experiment: JC-1 mitochondrial membrane potential assay; type: cell-based, human; settings: Huh7, JC-1, 10, 30, and 60 µM, concentration-dependent
Method: We employed 5, 5’, 6, 6’-tetrachloro-l, 1’, 3, 3’-tetraethylbenzimidazolcarbocyanine iodide (JC-1), which was obtained from Cayman Chemical Co., to analyze the mitochondrial membrane potential. The cells were seeded in 96-well black plates at a density of 7000 cells/well and cultured overnight. After treatment, JC-1 staining solution was added to each well and incubated at 37 °C for 15–30 minutes in the dark. The plates were obtained by centrifuged at 400 × g at room temperature for 5 minutes, and the supernatant was discarded. Then, JC-1 assay buffer was added to each well, followed by centrifugation at 400 × g at room temperature for 5 minutes, after which the supernatant was discarded. Finally, JC-1 assay buffer was added again to each well for fluorescent analysis using a fluorescent plate reader.

Hep3B cells [2] = experiment: MTT viability assay, Hep3B; type: cell-based, human; settings: dose-dependent
Method: (§2) After incubation, the media were removed from the wells.
Supplementary Figure 6. Effect of sorafenib with or without curcumin/formulated curcumin on Mahlavu and Hep3B cell viability. (A) Mahlavu and (B) Hep3B cells were treated with […]
(conventional)/formulated curcumin for 48 hours. Percentage of inhibition on Mahlavu and Hep3B cells was measured by MTT assay. Data are presented as means ± SEM. Results are representative of three independent experiments.

Huh7 cells [3] = experiment: Annexin V and PI double staining by flow cytometry; type: cell-based, human; settings: Huh7, 10–60 μM, 24 h, dose-dependent
Method: The Huh7 were incubated with various concentrations of conventional and formulated curcumin for 24 h. Annexin V/PI staining was performed to quantify cell apoptosis using an Annexin V-fluorescein isothiocyanate (FITC) Apoptosis Detection Kit (BioVision, Inc., Milpitas, CA, USA) according to the manufacturer’s protocol. Annexin V-FITC was then added followed by incubation for 15 minutes in the dark in a 100 µL cell suspension. PI was then spiked into 400 µL Annexin V binding buffer and added immediately to the cell suspension, and subsequently analyzed on a FACScan flow cytometer (BD Biosciences, USA).

Aurora-A = experiment: Western blot of Aurora-A, Huh7; type: cell-based, human; settings: Huh7, 0–60 μM, 48 h
Method: as §1

caspase-3 [4] = experiment: Western blot of cleaved caspase-3, Huh7; type: cell-based, human; settings: dose-dependent
Method: as §1

[5] = rat plasma, oral, cited from earlier work
Huh7 cells [6] = experiment: MTT proliferation and viability assay, Huh7; type: cell-based, human; settings: for IC50: Homo sapiens; for cell viability: dose-dependent
Method: as §2

[7] = Dissolution test, USP 41 basket method, 1% SDS medium; type: physicochemical; settings: 37 °C
Method: A dissolution test was conducted by the US Pharmacopeia 41 basket method (apparatus 1) using a dissolution tester (708-DS Dissolution apparatus, Agilent, USA). The samples of 89 mg conventional curcumin (equivalent to 72 mg curcumin) and 2180 mg formulated curcumin (equivalent to 72 mg curcumin) were placed into 900 mL of dissolution medium containing 1% sodium dodecyl sulfate (SDS) at 37 °C ± 0.5 °C, under a stirring speed of 100 ± 2 rpm. A 5 mL sample was withdrawn at each time interval (5, 10, 15, 20, 30, 45, and 60 minutes) and was mixed and filtered through a 0.45-µm pore membrane. Then, 2 mL of filtrate was diluted with mobile phase so that the total volume became 10 mL and subjected to HPLC analysis (Agilent 1260, USA). The HPLC program consisted of a mobile phase of tetrahydrofuran: 0.1% citric acid solution (4:6). The column used was 4.6 mm × 20 cm with 5-µm packing L1. The flow rate was 1 mL/minute, and the injection volume was 20 µL using a 420 nm wavelength detector. The percentages of curcumin dissolved from the conventional curcumin and pellets (formulated curcumin) into the medium were calculated and compared.

caspase-3 [8] = experiment: Western blot of cleaved caspase-3, Hep3B; type: cell-based, human; settings: 10 μM sorafenib, 30 μM conventional curcumin, 48 h
Method: as §1
(§3) formulated curcumin on HCC cell lines. (A) Huh7 cells were treated with various concentrations of
(§4) Cell viability was determined
(§5) cells were examined by flow cytometry.
(§6) were quantified using WinMDI 2.8 software.
(§7) compared to the control group.
(§8) μM of conventional curcumin for 48 h.
(§9) Quantification of cleavage-caspase-3
(§10) are representative of three independent experiments. […]

LC3-II = experiment: Western blot of LC3-II, Hep3B; type: cell-based, human; settings: 10 μM sorafenib, 30 μM conventional curcumin, 48 h
Method: as §1, §3, §4, §5, §6, §7, §8, §9, §10

Mahlavu cells = experiment: MTT viability assay, Mahlavu; type: cell-based; settings: 72 h (Figure 6B)
Method: (§11) Cells were seeded into a 96-well plate (1500–2000 cells/well) overnight and then treated with curcumin and the formulated curcumin respectively for 0, 24, 48, 72, 96 and 120 h. After treatment, […] 3-(4,5-cimethylthiazol-2-yl)-2,5-diphenyl tetrazolium bromide (MTT) was added to each well and cultured for 2 h at 37 °C. After incubation, the media were removed from the wells. The formazan crystals formed were then solubilized in DMSO at room temperature for 10 minutes, and then the absorbance was measured in a multimode microplate reader at 570 nm.

[9] = Pharmacokinetic study after oral gavage, curcumin in rat plasma by LC/MS/MS; type: in vivo, male Sprague Dawley (SD) rats; settings: 500 mg/kg, n = 5
Method: All animal treatment procedures followed the Guide for the Care and Use of Laboratory Animals (National Institutes of Health (NIH) publication, 85–23, revised 1996) as well as the Animal research: Reporting in vivo experiments (ARRIVE) guidelines, and were approved by the Animal Research Committee at National Yang-Ming University, Taipei, Taiwan, under Institutional Animal Care and Use Committees (IACUC) approval no: 990103. All surgeries and experimental procedure were carried out under anesthesia with all efforts to minimize animal suffering. Twelve male Sprague Dawley (SD) rats (270 ± 15 g body weight) were obtained from Bio-Lasco, Taipei, Taiwan. Water was provided ad libitum, regardless of administration route. All animals were acclimatized and quarantined in quarantine room of the Rosetta animal facility for about 1 week, and then transferred to feeding room. The humidity and temperature were well controlled as 30%–70% and 19–25 °C. The light and dark cycle was set as 12 h: 12 h. Food and drinking water were allowed ad libitum during housing. Rats were randomly divided into two groups treated with curcumin and formulated curcumin. […] A 300 μL blood sample was collected from the tail vein into a tube rinsed with heparin at 0, 0.25, 0.5, 1, 1.5, 2, 4, 6 h after oral administration. Plasma was obtained by centrifuging the blood sample at 4000 rpm for 10 minutes at 4 °C. The 10 μL plasma was mixed with 50 μL of the internal standard solution containing 0.1 ng/µL of agomelatine. The samples were vortexed and centrifuged at 13,000 rpm for 5 minutes. The 50 µL of supernatant was transferred to the 1.5 mL tube contained 50 µL solution of 25% acetonitrile and 0.1% acetic acid. After that, 50 μL of the solution was injected onto LC-MS system. Curcumin concentrations in the samples were determined by positive ion electrospray tandem mass spectrometry using multiple reaction monitoring (MRM). Separation of curcumin was conducted on a Cosmosil column (5C18-MS-IIPacked column, 120 Å, 5 µm, 4.6 mm I.D. x 150 mm; NACALAI TESQUE, Inc., Japan) with a mobile phase of acetonitrile-water-formic acid. […] Pharmacokinetic analysis was calculated using a non-compartmental model with the Phoenix WinNonlin® (Version 8.0) software. The area under the drug concentration-time curve (AUC) was used to measure the total amount of curcumin reaching the systemic circulation. The relative oral bioavailability (BA) of curcumin was calculated according to the following equation: […] The pharmacokinetic results were represented as the mean ± SD. Statistical analysis was performed by t test (SPSS version 10.0) to compare the differences between groups. The level of significance was set at p < 0.05.

Hep3B cells [10] = experiment: Cell cycle analysis (PI, flow cytometry), sub-G1 population; type: cell-based, human; settings: 48 h, 30 μM conventional curcumin, 10 μM sorafenib
Method: After treatment, the cells were collected by trypsinization and fixed in precooled 70% ethanol overnight. The cells were then incubated with PI in the presence of RNase A. The DNA content was analyzed by a FACSCalibur, and the data were analyzed by Flowjo software. The percentage of cells in the sub-G1 was used to indicate the apoptosis rate.
as §3, §4, §5, §6, §7, §8, §9
are representative of three independent experiments.
tetrazolium bromide; SEM, standard error of the mean.

PLC5 cells = experiment: MTT viability assay, PLC5; type: cell-based; settings: 72 h (Figure 6C)
Method: as §11

[11] = rats; piperine given concomitantly with curcumin; cited from earlier work
[12] = humans; 20 mg of piperine given concomitantly with 2 g of curcumin; cited from earlier work
[13] = 50 mg/kg, n = 5, ref [6] of supplement
[14] = 340 mg/kg, n = 3, ref [5] of supplement
[15] = 500 mg/kg, n = 6, ref [7] of supplement

IC50 (Huh7 cells [6]; Huh-7, 24 h, 24 h (Supplementary Figure S4)): ~90 µM
IC50 (Huh7 cells [6]; Huh-7, 48 h, 48 h (Supplementary Figure S4)): ~90 µM
IC50 (Huh7 cells [6]; Huh-7, 72 h, 72 h (Figure 6A)): 53.3 µM
IC50 (Huh7 cells [6]; Huh-7, 72 h, 72 h (Supplementary Figure S4)): ~60 µM
IC50 (Huh7 cells [6]; Huh-7, 96 h, 96 h (Supplementary Figure S4)): ~45 µM
IC50 (Huh7 cells [6]; Huh-7, 120 h, 120 h (Supplementary Figure S4)): ~30 µM
dissolution rate ([7]; 0 minutes): 0.00%
dissolution rate ([7]; 5 minutes): 9.80%
dissolution rate ([7]; 10 minutes): 13.60%
dissolution rate ([7]; 15 minutes): 14.05%
dissolution rate ([7]; 20 minutes): 17.28%
dissolution rate ([7]; 30 minutes): 19.41%
dissolution rate ([7]; 45 minutes): 24.06%
AUC0-t/Dose [9]: 0.0022 ± 0.0024
AUC0-t ([9]; male, Sprague Dawley): 1.1 ± 1.2 ng·h/mL
Cmax ([9]; male, Sprague Dawley): 0.704 ± 0.272 ng/mL
Tmax ([9]; male, Sprague Dawley): 75 ± 49.8 min
SMILES: COc1cc(/C=C/C(=O)CC(=O)/C=C/c2ccc(O)c(OC)c2)ccc1O [conventional curcumin, curcumin]
ERK phosphorylation (ERK): down-regulation
mitochondrial membrane potential (ΔΨm) (Huh7 cells [1]): significantly induced mitochondrial membrane potential breakdown
cell viability (Hep3B cells [2]): inhibited cell viability
percentage of cells undergoing early apoptosis (annexin V+/PI–) and late apoptosis (annexin V+/PI+) (Huh7 cells [3]): increased
level of Aurora-A (Aurora-A): significant decrease
caspase-3 activity (cleaved form) (caspase-3 [4]): increased
AUC0-t [5, 13]: 8.76 ng·h/mL
Cmax [5, 13]: 4.07 ± 0.56 ng/mL
Tmax [5, 13]: 30 min
AUC0-t [5, 14]: 80 ng·h/mL
Cmax [5, 14]: 2.39 ± 1.66 ng/mL
Tmax [5, 14]: 30 min
AUC0-t [5, 15]: 60 ng·h/mL
Cmax [5, 15]: 60 ± 10 ng/mL
Tmax [5, 15]: 42 ± 5.4 min
cell viability (Huh7 cells [6]): inhibited cell viability
levels of cleaved caspase-3 proteins (caspase-3 [8]): increased
LC3-II (LC3-II): significantly induced accumulation
IC50 (Mahlavu cells): 35.4 µM
apoptosis rate (sub-G1 population) (Hep3B cells [10]): 13.5%
IC50 (PLC5 cells): 82.5 µM

SMILES: O=C(/C=C/C=C/c1ccc2c(c1)OCO2)N1CCCCC1 [piperine]
increase of serum curcumin [11]: 1.56 times
increase of serum curcumin [12]: 20 times

SMILES: CNC(=O)c1cc(Oc2ccc(NC(=O)Nc3ccc(Cl)c(C(F)(F)F)c3)cc2)ccn1 [sorafenib]
cell viability (Hep3B cells [2]): inhibited cell viability
cell viability (Huh7 cells [6]): inhibited cell viability
levels of cleaved caspase-3 proteins (caspase-3 [8]): increased
apoptosis rate (sub-G1 population) (Hep3B cells [10]): 10.9%
